Data set [1] can be described thus: Retention time of the compound using CH3OH/H2O(0.1% Formic acid), 70% (v/v) of CH3OH gradient by HPLC analysis. The class given is physicochemical.
Data set [2] concerns the target Amyloid-beta precursor protein (Homo sapiens) (UniProt P05067). The experiment in a line: Inhibition of amyloid beta (1 to 42) (unknown origin) self-induced aggregation at 20 uM after 46 to 48 hrs by thioflavin-T based fluorometric assay.
The target of data set [3] is Acetylcholinesterase (Homo sapiens, UniProt P22303).
Description: Inhibition of human AChE using acetylthiocholine iodide as substrate incubated for 6 mins by spectrophotometric method
The target of the next data set is Cholinesterase (Equus caballus, UniProt P81908).
Data set [4] concerns the target Acetylcholinesterase (Electrophorus electricus, UniProt O42275).
Description: Inhibition of electric eel AChE using acetylthiocholine iodide as substrate incubated for 6 mins by spectrophotometric method
Data set [5] in a line: Retention time of the compound using CH3OH/H2O(0.1% Formic acid), 55% (v/v) of CH3OH gradient by HPLC analysis. It is filed as physicochemical.
Data set [6] in a line: Retention time of the compound using CH3OH/H2O (0.1% Formic acid), 65% (v/v) of CH3OH gradient by HPLC analysis. It is filed as physicochemical.
A short description of data set [7]: Retention time of the compound using CH3OH/H2O(0.1% Formic acid), 75% (v/v) of CH3OH gradient by HPLC analysis. The class given is physicochemical.
The nature of another data set: in vitro. To be noted: PAMPA. For orientation: PAMPA measures passive passage across an artificial lipid membrane.
Data set [8] can be described thus: Retention time of the compound using CH3OH/H2O (0.1% Formic acid), 60% (v/v) of CH3OH gradient by HPLC analysis. The class given is physicochemical.
Data set [9] can be described thus: Retention time of the compound using CH3OH/H2O(0.1% Formic acid), 45% (v/v) of CH3OH gradient by HPLC analysis. The class given is physicochemical.
A further data set concerns PC-12. The experiment in a line: Neuroprotective activity against H2O2-induced oxidative damage in rat PC12 cells assessed as increase in cell viability at 0.4 to 10 uM after 24 hrs by MTT assay. The class given is functional, cell-based. On the technique in general: Tetrazolium dyes change colour on reduction, which living cells bring about.
The nature of data set [10]: Neuroprotective activity against H2O2-induced oxidative damage in rat PC12 cells assessed as increase in cell viability at 10 uM after 24 hrs by MTT assay. The class given is functional, PC-12.
Data set [11] can be described thus: Metal chelating activity of the compound assessed as Cu2+ complex formation at 25 uM by UV-vis spectrometry. The class given is physicochemical.
The target in data set [12] is Acetylcholinesterase (Electrophorus electricus) (UniProt O42275). The data set can be described thus: Mixed-type of inhibition in electric eel AChE by Lineweaver-Burk plot analysis.

This is an account of results in ChEMBL document CHEMBL3351298, “Design, synthesis and evaluation of novel tacrine-(β-carboline) hybrids as multifunctional agents for the treatment of Alzheimer's disease” (Bioorg Med Chem, 2014).

Molecules are shown by their SMILES. The source made the active and inactive calls. No cut-off for these calls is given here.

The inhibition is the share of the control response that was lost under treatment. For orientation: IC50 means the midpoint of a concentration-inhibition curve. The Papp is a coefficient for how fast a substance crosses the barrier.

Cholinesterase, sequence (P81908 whole entry): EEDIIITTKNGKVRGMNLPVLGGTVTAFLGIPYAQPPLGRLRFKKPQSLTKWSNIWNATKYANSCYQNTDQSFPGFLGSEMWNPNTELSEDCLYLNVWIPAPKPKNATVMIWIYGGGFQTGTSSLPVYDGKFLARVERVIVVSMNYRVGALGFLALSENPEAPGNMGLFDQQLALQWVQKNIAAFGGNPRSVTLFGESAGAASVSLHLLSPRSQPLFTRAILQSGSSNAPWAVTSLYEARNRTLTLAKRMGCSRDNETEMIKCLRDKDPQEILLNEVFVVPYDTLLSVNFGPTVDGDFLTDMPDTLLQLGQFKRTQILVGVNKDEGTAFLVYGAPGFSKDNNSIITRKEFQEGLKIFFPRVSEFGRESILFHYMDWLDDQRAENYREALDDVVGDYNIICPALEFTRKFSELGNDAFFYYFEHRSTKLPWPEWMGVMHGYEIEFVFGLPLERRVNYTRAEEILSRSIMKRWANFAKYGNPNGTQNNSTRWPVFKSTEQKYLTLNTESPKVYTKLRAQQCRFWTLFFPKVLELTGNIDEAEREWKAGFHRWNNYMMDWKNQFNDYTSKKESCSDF
Acetylcholinesterase (Homo sapiens, UniProt P22303), sequence (P22303 whole entry): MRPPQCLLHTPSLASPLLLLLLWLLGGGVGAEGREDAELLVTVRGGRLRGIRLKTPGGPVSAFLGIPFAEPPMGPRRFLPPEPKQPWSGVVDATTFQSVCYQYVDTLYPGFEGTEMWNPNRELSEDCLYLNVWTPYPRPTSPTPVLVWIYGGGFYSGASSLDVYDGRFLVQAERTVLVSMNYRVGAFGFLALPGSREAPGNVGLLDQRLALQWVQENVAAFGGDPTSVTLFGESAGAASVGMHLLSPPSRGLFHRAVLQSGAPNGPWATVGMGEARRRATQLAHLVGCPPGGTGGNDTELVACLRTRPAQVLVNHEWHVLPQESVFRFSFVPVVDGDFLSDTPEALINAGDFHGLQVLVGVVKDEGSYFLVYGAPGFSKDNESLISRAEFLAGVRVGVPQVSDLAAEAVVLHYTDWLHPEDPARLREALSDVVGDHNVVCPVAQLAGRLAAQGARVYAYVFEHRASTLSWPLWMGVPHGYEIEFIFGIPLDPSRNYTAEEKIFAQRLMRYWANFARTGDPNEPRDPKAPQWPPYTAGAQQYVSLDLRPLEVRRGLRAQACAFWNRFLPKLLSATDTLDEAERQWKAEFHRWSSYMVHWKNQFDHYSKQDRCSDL
Acetylcholinesterase (Electrophorus electricus, UniProt O42275), sequence (O42275 whole entry): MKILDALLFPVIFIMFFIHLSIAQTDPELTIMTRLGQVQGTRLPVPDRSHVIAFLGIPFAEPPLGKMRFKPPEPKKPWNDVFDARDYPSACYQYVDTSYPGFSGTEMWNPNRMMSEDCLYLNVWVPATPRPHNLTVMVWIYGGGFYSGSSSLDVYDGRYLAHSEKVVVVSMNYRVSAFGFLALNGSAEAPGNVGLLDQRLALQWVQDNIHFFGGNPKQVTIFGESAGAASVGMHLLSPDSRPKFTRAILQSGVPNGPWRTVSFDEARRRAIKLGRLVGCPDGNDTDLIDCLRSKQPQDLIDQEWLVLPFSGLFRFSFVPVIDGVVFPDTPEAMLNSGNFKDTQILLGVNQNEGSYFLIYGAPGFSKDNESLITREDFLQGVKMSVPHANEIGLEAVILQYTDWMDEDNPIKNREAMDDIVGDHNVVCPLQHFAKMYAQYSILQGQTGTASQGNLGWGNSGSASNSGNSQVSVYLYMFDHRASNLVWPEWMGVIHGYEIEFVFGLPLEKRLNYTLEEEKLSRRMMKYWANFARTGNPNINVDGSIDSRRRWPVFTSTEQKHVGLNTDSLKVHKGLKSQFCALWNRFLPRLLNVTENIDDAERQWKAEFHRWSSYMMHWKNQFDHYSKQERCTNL
Amyloid-beta precursor protein (Homo sapiens), sequence (P05067 whole entry): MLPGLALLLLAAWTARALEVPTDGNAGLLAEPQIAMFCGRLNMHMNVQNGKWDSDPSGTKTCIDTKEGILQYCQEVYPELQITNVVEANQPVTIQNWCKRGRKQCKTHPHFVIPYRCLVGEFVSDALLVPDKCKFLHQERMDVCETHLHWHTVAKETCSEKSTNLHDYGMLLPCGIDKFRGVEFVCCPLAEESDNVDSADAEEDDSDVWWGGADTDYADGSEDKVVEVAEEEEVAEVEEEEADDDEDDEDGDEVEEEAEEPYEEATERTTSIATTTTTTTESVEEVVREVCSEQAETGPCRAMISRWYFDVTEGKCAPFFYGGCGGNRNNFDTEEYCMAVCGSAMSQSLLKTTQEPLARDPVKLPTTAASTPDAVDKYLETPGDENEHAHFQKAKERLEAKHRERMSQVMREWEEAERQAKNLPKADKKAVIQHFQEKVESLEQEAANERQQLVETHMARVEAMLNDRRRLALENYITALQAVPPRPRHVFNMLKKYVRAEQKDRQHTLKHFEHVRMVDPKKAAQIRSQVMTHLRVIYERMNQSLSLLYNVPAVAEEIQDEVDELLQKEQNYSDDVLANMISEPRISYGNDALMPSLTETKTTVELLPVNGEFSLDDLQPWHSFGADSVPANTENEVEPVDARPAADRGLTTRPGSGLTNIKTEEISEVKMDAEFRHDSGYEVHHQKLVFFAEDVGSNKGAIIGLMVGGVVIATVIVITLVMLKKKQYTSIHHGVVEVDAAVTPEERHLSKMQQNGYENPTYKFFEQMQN
Acetylcholinesterase (Electrophorus electricus), sequence (O42275 24-633 limits assumed): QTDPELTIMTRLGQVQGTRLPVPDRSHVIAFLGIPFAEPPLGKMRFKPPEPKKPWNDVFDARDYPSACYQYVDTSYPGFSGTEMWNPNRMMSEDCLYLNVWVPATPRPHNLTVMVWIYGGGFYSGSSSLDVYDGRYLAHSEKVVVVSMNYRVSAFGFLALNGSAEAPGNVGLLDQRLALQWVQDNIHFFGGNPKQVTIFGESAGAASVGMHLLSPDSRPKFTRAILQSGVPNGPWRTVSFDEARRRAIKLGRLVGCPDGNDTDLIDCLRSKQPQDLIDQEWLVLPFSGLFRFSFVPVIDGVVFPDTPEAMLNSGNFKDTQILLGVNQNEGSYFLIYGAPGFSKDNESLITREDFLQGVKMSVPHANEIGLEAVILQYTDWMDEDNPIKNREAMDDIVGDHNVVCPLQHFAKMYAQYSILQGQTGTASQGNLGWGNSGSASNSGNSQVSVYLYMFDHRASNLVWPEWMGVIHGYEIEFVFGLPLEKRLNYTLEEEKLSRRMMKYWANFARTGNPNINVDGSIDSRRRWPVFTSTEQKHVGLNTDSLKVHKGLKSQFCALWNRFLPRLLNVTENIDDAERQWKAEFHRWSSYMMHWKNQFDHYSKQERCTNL

`CC1c2[nH]c3ccccc3c2C[C@@H](C(=O)NCCCCCCNc2c3c(nc4ccccc24)CCCC3)N1C(=O)OC(C)(C)C` (stereo not given in full) returned a Retention_time in [1] of 8.219 min. The same compound yielded an inhibition in data set [2] of 42.3%. Further, the figures for the IC50 against Acetylcholinesterase [3], at Cholinesterase and against Acetylcholinesterase [4] were 526 nM, 22.3 nM and 389 nM, respectively.
As for `Cc1nc(C(=O)NCCCCCCCCNc2c3c(nc4ccccc24)CCCC3)cc2c1[nH]c1ccccc12`, the Retention_time in [1] is listed as 7.963 min. The same compound registered an inhibition in data set [2] of 36.6%. Besides, the IC50 against Acetylcholinesterase [3] was 153 nM; against Cholinesterase, 245 nM; against Acetylcholinesterase [4], 107 nM.
On to `Cc1nc(C(=O)NCCCCNc2c3c(nc4ccccc24)CCCC3)cc2c1[nH]c1ccccc12`, for which the inhibition in data set [2] came to 39.3%. Also, the results for the IC50 against Acetylcholinesterase [3], on Cholinesterase and at Acetylcholinesterase [4] were 325 nM, 158 nM and 268 nM, respectively. For the same compound, the Retention_time in [5] was 10.988 min.
For `O=C(NCCCCCCNc1c2c(nc3ccccc13)CCCC2)c1cc2c([nH]c3ccccc32)c(-c2ccccc2)n1`, the inhibition in [2] turned out to be 26.1%. The results for the IC50 against Acetylcholinesterase [3], at Cholinesterase and at Acetylcholinesterase [4] were 159 nM, 129 nM and 127 nM, respectively. In [6], this compound registered a Retention_time of 23.485 min.
The compound `Cc1nc(C(=O)NCCCCCCCCCCNc2c3c(nc4ccccc24)CCCC3)cc2c1[nH]c1ccccc12` showed an inhibition in [2] of 38.8%. Also, the Retention_time in data set [7] is 7.918 min. The IC50 at Cholinesterase came out at 364 nM; at Acetylcholinesterase [4], 783 nM.
In the data set “in vitro”, `CC(=O)[C@H]1CC[C@H]2[C@@H]3CCC4=CC(=O)CC[C@]4(C)[C@H]3CC[C@]12C` [PROGESTERONE] displayed a Papp of 4.14 ×10⁻⁶ cm/s.
Turning to `COc1ccc(-c2nc(C(=O)NCCCCCCNc3c4c(nc5ccccc35)CCCC4)cc3c2[nH]c2ccccc23)cc1`, the inhibition in data set [2] was 25.2%. Further, the IC50 is 149 nM at Acetylcholinesterase [3], 329 nM on Cholinesterase and 97.7 nM against Acetylcholinesterase [4]. The Retention_time in [7] is on record as 5.664 min.
Consider `Cc1nc(C(=O)NCCCCCCNc2c3c(nc4ccccc24)CCCC3)cc2c1[nH]c1ccccc12`, for which the Retention_time in data set [8] is 13.685 min. The inhibition in [2] was found to be 41.5%. The IC50 against Acetylcholinesterase [3] came to 92.6 nM; against Cholinesterase it was 93.6 nM; on Acetylcholinesterase [4], 40.6 nM.
Take `O=C(NCCCCCCNc1c2c(nc3ccccc13)CCCC2)c1cc2c([nH]c3ccccc32)c(-c2ccc(F)cc2)n1`: the inhibition in [2] is 29.7%. In addition, the IC50 on Acetylcholinesterase [3] was 306 nM; on Cholinesterase, 205 nM; against Acetylcholinesterase [4] it was 230 nM. In data set [7], the Retention_time was 5.973 min.
The compound `O=C(NCCCCCCNc1c2c(nc3ccccc13)CCCC2)[C@@H]1Cc2c([nH]c3ccccc23)CN1` registered a Retention_time in data set [9] of 7.932 min. Also, the result in the data set on PC-12 was Active. Besides, the inhibition in data set [2] was 65.8%. Also, the values for the Activity in data set [10] and in data set [11] were 73.67% and “Active”, respectively. Besides, the Papp in the data set “in vitro” turned out to be 5.6 ×10⁻⁶ cm/s. The IC50 on Acetylcholinesterase [3] amounted to 63.2 nM; at Cholinesterase, 39.8 nM; at Acetylcholinesterase [4], 21.6 nM. Further, in data set [12], the inhibition result is “Active”.
Regarding `O=C(NCCCCCCNc1c2c(nc3ccccc13)CCCC2)c1cc2c(cn1)[nH]c1ccccc12`, the Retention_time in data set [8] came out at 15.899 min. In [2], this compound came in with an inhibition of 41.2%. Also, the apparent permeability (Papp) in the data set “in vitro” came out at 5.36 ×10⁻⁶ cm/s. The IC50 against Acetylcholinesterase [3] came out at 91.8 nM; on Cholinesterase it was 41.3 nM; against Acetylcholinesterase [4], 32.4 nM.
In [8], `CC(=O)N[C@@H](Cc1c[nH]c2ccccc12)C(=O)NCCCCCCNc1c2c(nc3ccccc13)CCCC2` displayed a Retention_time of 4.642 min. Further, the inhibition in [2] came out at 61.4%. Further, the IC50 at Acetylcholinesterase [3] was 153 nM; on Cholinesterase, 6.2 nM; against Acetylcholinesterase [4], 115 nM.
Consider `CCc1nc(C(=O)NCCCCCCNc2c3c(nc4ccccc24)CCCC3)cc2c1[nH]c1ccccc12`, for which the inhibition in data set [2] stood at 44.6%. This compound had a Papp in “in vitro” of 4.97 ×10⁻⁶ cm/s. Besides, the IC50 against Acetylcholinesterase [3] was 98.2 nM; against Cholinesterase, 96.9 nM; on Acetylcholinesterase [4], 51.7 nM. The compound also came in with a Retention_time in data set [6] of 10.991 min.
For the compound `N[C@@H](Cc1c[nH]c2ccccc12)C(=O)NCCCCCCNc1c2c(nc3ccccc13)CCCC2`, in data set [9], the Retention_time worked out at 5.426 min. Moreover, in the data set on PC-12, the result was Active. This compound also registered an inhibition in data set [2] of 66.3%. In the data set “in vitro”, this compound returned a Papp of 4.45 ×10⁻⁶ cm/s. In addition, the IC50 against Acetylcholinesterase [3] worked out at 96.3 nM; against Cholinesterase, 10.6 nM; against Acetylcholinesterase [4] it was 51.6 nM.
The compound `COC(=O)c1cc2c(cn1)[nH]c1ccccc12` [BETA-CCM] registered an inhibition in data set [2] of 22.1%. Also, the IC50 was greater than 100000 nM at Cholinesterase and 63000 nM against Acetylcholinesterase [4].
Compound `NCCc1ccc(O)c(O)c1` [DOPAMINE] yielded a Papp in the data set “in vitro” of 0.15 ×10⁻⁶ cm/s.
On the same count and under the same terms, next, `CN1C(C(=O)Nc2ccccn2)=C(O)c2ccccc2S1(=O)=O` [PIROXICAM]: 1.2 ×10⁻⁶ cm/s.
On to `CC(C)(C)OC(=O)N1Cc2[nH]c3ccccc3c2C[C@H]1C(=O)NCCCCCCNc1c2c(nc3ccccc13)CCCC2`, for which the Retention_time in [8] came to 17.683 min. The same compound returned an inhibition in data set [2] of 52.4%. The compound also gave a Papp in the data set “in vitro” of 5.81 ×10⁻⁶ cm/s. Besides, the IC50 against Acetylcholinesterase [3] was determined as 187 nM; at Cholinesterase, 7.5 nM; at Acetylcholinesterase [4], 141 nM.
Regarding `CC(C)(C)OC(=O)N[C@@H](Cc1c[nH]c2ccccc12)C(=O)NCCCCCCNc1c2c(nc3ccccc13)CCCC2`, the Retention_time in data set [1] came out at 4.417 min. In data set [2], this compound yielded an inhibition of 62.1%. For the same compound, the Papp in the data set “in vitro” worked out at 5.52 ×10⁻⁶ cm/s. Also, the IC50 against Acetylcholinesterase [3] came out at 116 nM; on Cholinesterase, 4.3 nM; at Acetylcholinesterase [4] it was 67.3 nM.
For `Cc1nc(C(=O)NCCNc2c3c(nc4ccccc24)CCCC3)cc2c1[nH]c1ccccc12`, in [2], the inhibition came to 42.4%. In [5], the Retention_time worked out at 10.74 min. Further, the results for the IC50 on Cholinesterase and against Acetylcholinesterase [4] were 539 nM and 485 nM, respectively.
The compound `Clc1cccc(Cl)c1N=C1NCCN1` [CLONIDINE] returned a Papp in “in vitro” of 3.8 ×10⁻⁶ cm/s.
In the case of `CC1N[C@H](C(=O)NCCCCCCNc2c3c(nc4ccccc24)CCCC3)Cc2c1[nH]c1ccccc21` (stereo not given in full), the inhibition in data set [2] is 48.6%. Also, the IC50 on Acetylcholinesterase [3] is 203 nM; against Cholinesterase it was 240 nM; against Acetylcholinesterase [4], 156 nM.
